According to patent US7081460B2, “Quinazoline and quinazoline-like compounds for the treatment of integrin-mediated disorders” (Ortho-McNeil Pharmaceutical, Inc., priority 2001, dated 2006):

Legend:
Human αvβ3 = biological target: T1, Human αvβ3 (Homo sapiens, UniProt P05106+P06756); assay: In vitro solid phase purified αvβ3 binding assay (vitronectin/αvβ3); conditions: isolated human αvβ3, 5 nM vitronectin; read-out: αvβ3 Binding IC50
T1 construct: purchased Chemicon International Inc., Temecula, Calif
In short: (§1)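 αvβ3 (1 μg/ml) immobilised in Tris buffer with Ca2+/Mg2+/Mn2+, compounds added 5 min before 5 nM vitronectin, 3 h at 37 °C; bound vitronectin detected by anti-vitronectin antibody/peroxidase ELISA at 490 nm. GPIIb/IIIa coated overnight at 4 °C, biotinylated fibrinogen with compounds 2–4 h RT in modified Tyrodes buffer, avidin-HRP/o-phenylenediamine read at 490 nm.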

GPIIb/IIIa = GPIIb/IIIa (Homo sapiens, UniProt P05106+P08514); assay: In vitro solid phase purified glycoprotein IIb/IIIa binding assay (biotinylated fibrinogen); conditions: RGD-affinity purified GPIIb/IIIa, biotinylated fibrinogen; read-out: GPIIb/IIIa Binding IC50
In short: as §1

T1 sequence (P06756 31-889 limits assumed): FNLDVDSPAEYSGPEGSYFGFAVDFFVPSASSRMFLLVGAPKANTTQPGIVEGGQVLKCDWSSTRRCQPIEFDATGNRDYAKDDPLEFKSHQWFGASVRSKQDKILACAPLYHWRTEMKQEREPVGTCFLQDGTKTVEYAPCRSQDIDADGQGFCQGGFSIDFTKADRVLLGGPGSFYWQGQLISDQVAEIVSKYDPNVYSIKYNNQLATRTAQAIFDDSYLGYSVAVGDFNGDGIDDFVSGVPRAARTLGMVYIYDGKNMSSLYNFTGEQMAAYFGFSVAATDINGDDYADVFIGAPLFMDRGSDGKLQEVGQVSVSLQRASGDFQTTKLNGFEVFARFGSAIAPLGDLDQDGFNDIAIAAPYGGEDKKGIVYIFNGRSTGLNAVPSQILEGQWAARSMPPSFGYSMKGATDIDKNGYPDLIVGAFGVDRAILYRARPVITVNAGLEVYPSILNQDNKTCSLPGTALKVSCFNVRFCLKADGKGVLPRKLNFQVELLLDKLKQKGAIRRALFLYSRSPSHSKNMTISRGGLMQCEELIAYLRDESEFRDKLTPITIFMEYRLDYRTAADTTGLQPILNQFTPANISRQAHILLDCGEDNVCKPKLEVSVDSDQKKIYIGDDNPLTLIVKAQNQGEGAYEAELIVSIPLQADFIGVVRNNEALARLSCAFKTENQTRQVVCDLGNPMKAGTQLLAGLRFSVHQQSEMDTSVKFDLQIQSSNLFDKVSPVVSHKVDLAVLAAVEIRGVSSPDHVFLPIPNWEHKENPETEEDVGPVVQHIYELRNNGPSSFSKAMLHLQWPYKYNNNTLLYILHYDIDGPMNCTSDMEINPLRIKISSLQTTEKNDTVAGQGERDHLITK
T1 sequence (P06756 891-1048 partner limits assumed): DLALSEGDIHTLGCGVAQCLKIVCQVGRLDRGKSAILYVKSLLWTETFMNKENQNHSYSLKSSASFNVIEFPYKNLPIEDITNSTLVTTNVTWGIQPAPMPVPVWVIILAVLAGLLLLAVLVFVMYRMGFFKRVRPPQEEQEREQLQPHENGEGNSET
T1 sequence (P05106 27-788): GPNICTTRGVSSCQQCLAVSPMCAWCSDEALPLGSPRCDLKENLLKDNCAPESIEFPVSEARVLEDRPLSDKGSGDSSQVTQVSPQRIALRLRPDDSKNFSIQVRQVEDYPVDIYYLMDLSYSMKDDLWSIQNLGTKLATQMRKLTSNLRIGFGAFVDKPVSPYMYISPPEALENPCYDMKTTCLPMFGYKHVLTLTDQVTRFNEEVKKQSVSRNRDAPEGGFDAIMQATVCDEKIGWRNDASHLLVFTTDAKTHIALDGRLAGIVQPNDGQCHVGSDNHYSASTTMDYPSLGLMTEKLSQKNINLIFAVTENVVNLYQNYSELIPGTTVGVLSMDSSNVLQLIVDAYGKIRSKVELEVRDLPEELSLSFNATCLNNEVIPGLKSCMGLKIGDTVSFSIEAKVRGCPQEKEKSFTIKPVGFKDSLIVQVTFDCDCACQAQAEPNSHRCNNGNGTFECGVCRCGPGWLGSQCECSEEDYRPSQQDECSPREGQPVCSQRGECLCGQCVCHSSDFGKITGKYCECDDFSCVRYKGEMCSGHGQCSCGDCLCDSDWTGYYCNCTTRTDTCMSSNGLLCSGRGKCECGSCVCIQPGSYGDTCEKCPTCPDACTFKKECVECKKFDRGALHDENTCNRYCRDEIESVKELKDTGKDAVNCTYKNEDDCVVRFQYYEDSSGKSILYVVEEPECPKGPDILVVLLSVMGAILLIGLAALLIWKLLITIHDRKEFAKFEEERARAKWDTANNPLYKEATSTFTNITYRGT
Sequence of GPIIb/IIIa (P08514 32-887 limits assumed): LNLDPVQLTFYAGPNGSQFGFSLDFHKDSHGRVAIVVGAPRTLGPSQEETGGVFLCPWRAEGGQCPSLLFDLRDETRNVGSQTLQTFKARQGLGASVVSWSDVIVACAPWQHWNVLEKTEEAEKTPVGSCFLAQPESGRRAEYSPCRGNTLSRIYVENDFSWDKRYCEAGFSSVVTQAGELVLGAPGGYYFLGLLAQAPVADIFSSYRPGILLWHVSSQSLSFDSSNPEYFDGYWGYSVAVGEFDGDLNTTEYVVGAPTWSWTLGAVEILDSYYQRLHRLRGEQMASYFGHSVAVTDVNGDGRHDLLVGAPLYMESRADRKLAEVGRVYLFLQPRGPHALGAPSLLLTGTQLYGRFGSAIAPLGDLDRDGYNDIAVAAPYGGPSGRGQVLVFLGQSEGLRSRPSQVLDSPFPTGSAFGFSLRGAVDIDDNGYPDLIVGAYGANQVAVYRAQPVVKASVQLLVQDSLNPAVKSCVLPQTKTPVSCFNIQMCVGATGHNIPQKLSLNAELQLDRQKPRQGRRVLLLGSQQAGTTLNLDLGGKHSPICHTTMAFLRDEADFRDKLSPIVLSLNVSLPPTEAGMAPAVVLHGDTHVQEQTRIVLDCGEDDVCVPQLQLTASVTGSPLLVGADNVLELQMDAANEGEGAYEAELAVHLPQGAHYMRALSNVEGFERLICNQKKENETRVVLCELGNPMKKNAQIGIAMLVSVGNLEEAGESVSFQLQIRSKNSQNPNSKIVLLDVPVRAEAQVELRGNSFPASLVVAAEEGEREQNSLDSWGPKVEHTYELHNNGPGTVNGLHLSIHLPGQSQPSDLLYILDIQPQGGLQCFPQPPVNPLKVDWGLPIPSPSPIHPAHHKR
Sequence of GPIIb/IIIa (P08514 891-1039 partner limits assumed): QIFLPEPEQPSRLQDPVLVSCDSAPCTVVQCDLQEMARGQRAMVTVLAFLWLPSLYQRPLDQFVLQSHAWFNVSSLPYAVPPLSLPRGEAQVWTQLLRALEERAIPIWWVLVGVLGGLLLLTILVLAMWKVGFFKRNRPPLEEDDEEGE
Sequence of GPIIb/IIIa (P05106 27-788): as the sequence (P05106 27-788) above

Row | IC50 (Human αvβ3) [nM] | IC50 (GPIIb/IIIa) [nM] | Molecule
1 | 59 | 3900 | CNC(=O)NC/C=C/c1ccc2nc(C[C@H](NS(=O)(=O)c3c(C)c(C)c(C)c(C)c3C)C(=O)O)[nH]c(=O)c2c1 [Compound 59, (αS)-3,4-dihydro-6-[(1E)-3-[[(methylamino)carbonyl]amino]-1-propenyl]-4-oxo-α-[[(2,3,4,5,6-pentamethylphenyl)sulfonyl]amino]-2-quinazolinepropanoic acid]
2 | 5400 | 55000 | Cn1c(C(CC(=O)O)c2ccccc2)nc2ccc(C=CCNC3=NCCN3)cc2c1=O [Compound 78, (βR,S)-3,4-dihydro-3-methyl-4-oxo-β-phenyl-6-[(1E)-3-[(4,5-dihydro-1H-imidazol-2-yl)amino]-1-propenyl]-2-quinazolinepropanoic acid]
3 | > 50 | 1600 | O=C(O)[C@H](Cc1nc2ccc(/C=C/CNC3=NCCN3)cc2c(=O)[nH]1)NS(=O)(=O)c1c(Cl)cc(Cl)cc1Cl [Compound 21, 6-[(1E)-3-[(4,5-dihydro-1H-imidazol-2-yl)amino]-1-propenyl]-(αS)-3,4-dihydro-4-oxo-α-[[(2,4,6-trichlorophenyl)sulfonyl]amino]-2-quinazolinepropanoic acid]
4 | > 300 | 2200 | O=C(O)[C@H](Cc1nc2ccc(/C=C/CNc3ccccn3)cc2c(=O)[nH]1)NS(=O)(=O)c1ccc(S(=O)(=O)c2ccccc2)s1 [Compound 28, (αS)-3,4-dihydro-4-oxo-α-[[[5-(phenylsulfonyl)-2-thienyl]sulfonyl]amino]-6-[(1E)-3-(2-pyridinylamino)-1-propenyl]-2-quinazolinepropanoic acid]
5 | > 5000 | 450 | NC/C=C/c1ccc2nc(C[C@H](NC(=O)OCc3ccccc3)C(=O)O)[nH]c(=O)c2c1 [Compound 19, 6-[(1E)-3-amino-1-propenyl]-(αS)-3,4-dihydro-4-oxo-α-[[(phenylmethoxy)carbonyl]amino]-2-quinazolinepropanoic acid]
6 | 9.6 | 640 | Cc1c(C)c(C)c(S(=O)(=O)N[C@@H](Cc2nc3ccc(CCCNc4ccccn4)cc3c(=O)[nH]2)C(=O)O)c(C)c1C [Compound 11, (αS)-3,4-dihydro-4-oxo-α-[[(2,3,4,5,6-pentamethylphenyl)sulfonyl]amino]-6-[3-(2-pyridinylamino)propyl]-2-quinazolinepropanoic Acid]

Continued, molecule first:

Row | Molecule | IC50 (Human αvβ3) [nM] | IC50 (GPIIb/IIIa) [nM]
7 | COc1ccc(S(=O)(=O)N[C@@H](Cc2nc3ccc(/C=C/CNC4=NCCN4)cc3c(=O)[nH]2)C(=O)O)cc1 [Compound 50, 6-[(1E)-3-[(4,5-dihydro-1H-imidazol-2-yl)amino]-1-propenyl]-(αS)-3,4-dihydro-α-[[(4-methoxyphenyl)sulfonyl]amino]-4-oxo-2-quinazolinepropanoic acid] | 6.8 | 51
8 | Cc1c(C)c(C)c(S(=O)(=O)N[C@@H](Cc2nc3ccc(/C=C/CNC(=O)NC4C[C@H]4c4ccccc4)cc3c(=O)[nH]2)C(=O)O)c(C)c1C (stereo partly drawn) [Compound 66, (αS)-3,4-dihydro-4-oxo-α-[[(2,3,4,5,6-pentamethylphenyl)sulfonyl]amino]-6-[(1E)-3-[[[[(2S)-2-phenylcyclopropyl]amino]carbonyl]amino]-1-propenyl]-2-quinazolinepropanoic acid] | 210 | 780
9 | O=C(NC/C=C/c1ccc2nc(C[C@H](NS(=O)(=O)Cc3ccccc3)C(=O)O)[nH]c(=O)c2c1)NCc1ccccc1 [Compound 70, (αS)-3,4-dihydro-4-oxo-6-[(1E)-3-[[[(phenylmethyl)amino]carbonyl]amino]-1-propenyl]-α-[[(phenylmethyl)sulfonyl]amino]-2-quinazolinepropanoic acid] | 550 | 3200
10 | COc1ccc(S(=O)(=O)N[C@@H](Cc2nc3ccc(/C=C/CNc4ccc(Cl)cn4)cc3c(=O)[nH]2)C(=O)O)cc1 [Compound 40, 6-[(1E)-3-[(5-chloro-2-pyridinyl)amino]-1-propenyl]-(αS)-3,4-dihydro-α-[[(4-methoxyphenyl)sulfonyl]amino]-4-oxo-2-quinazolinepropanoic acid] | 740 | 1900
11 | COc1ccc(S(=O)(=O)N[C@@H](Cc2nc3ccc(/C=C/CNC(=O)NCc4ccccc4)cc3c(=O)[nH]2)C(=O)O)cc1 [Compound 57, (αS)-3,4-dihydro-α-[[(4-methoxyphenyl)sulfonyl]amino]-4-oxo-6-[(1E)-3-[[[(phenylmethyl)amino]carbonyl]amino]-1-propenyl]-2-quinazolinepropanoic acid] | 43 | 3700
12 | O=C(N[C@@H](Cc1nc2ccc(/C=C/CCNC3=NCCN3)cc2c(=O)[nH]1)C(=O)O)OCc1ccccc1 [Compound 8, 6-[(1E)-4-[(4,5-dihydro-1H-imidazol-2-yl)amino]-1-butenyl]-(αS)-3,4-dihydro-4-oxo-α-[[(phenylmethoxy)carbonyl]amino]-2-quinazolinepropanoic Acid] | 210 | 580
13 | Cc1nn(C)c(Cl)c1S(=O)(=O)N[C@@H](Cc1nc2ccc(/C=C/CNc3ccccn3)cc2c(=O)[nH]1)C(=O)O [Compound 36, α-[[(5-chloro-1,3-dimethyl-1H-pyrazol-4-yl)sulfonyl]amino]-(αS)-3,4-dihydro-4-oxo-6-[(1E)-3-(2-pyridinylamino)-1-propenyl]-2-quinazolinepropanoic acid] | 25 | 2700
14 | CC(C)(C)OC(=O)N[C@@H](Cc1nc2ccc(/C=C/CNC3=NCCCCC3)cc2c(=O)[nH]1)C(=O)O [Compound 71, α-[[(1,1-dimethylethoxy)carbonyl]amino]-(αS)-3,4-dihydro-4-oxo-6-[(1E)-3-[(3,4,5,6-tetrahydro-2H-azepin-7-yl)amino]-1-propenyl]-2-quinazolinepropanoic acid] | 960 | 12000
15 | O=C(O)CCc1nc2ccc(/C=C/CNc3ccccn3)cc2c(=O)n1Cc1ccccc1 [Compound 82, 3,4-dihydro-4-oxo-3-(phenylmethyl)-6-[(1E)-3-(2-pyridinylamino)-1-propenyl]-2-quinazolinepropanoic acid] | > 5000 | > 50000
16 | 6-[(1E)-3-[(4,5-dihydro-1H-imidazol-2-yl)amino]-1-propenyl]-(αS)-3,4-dihydro-4-oxo-α-[[[(E)-2-phenylethenyl]sulfonyl]amino]-2-quinazolinepropanoic Acid [Compound 7] | 7 | 330
17 | COc1ccc(S(=O)(=O)N[C@@H](Cc2nc3ccc(/C=C/CNc4ccc(C)cn4)cc3c(=O)[nH]2)C(=O)O)cc1OC [Compound 44, α-[[(3,4-dimethoxyphenyl)sulfonyl]amino]-(αS)-3,4-dihydro-6-[(1E)-3-[(5-methyl-2-pyridinyl)amino]-1-propenyl]-4-oxo-2-quinazolinepropanoic acid] | 24 | 790
18 | O=C(O)[C@H](Cc1nc2ccc(/C=C/CNc3ccccn3)cc2c(=O)[nH]1)NS(=O)(=O)c1ccc(OC(F)(F)F)cc1 [Compound 35, (αS)-3,4-dihydro-4-oxo-6-[(1E)-3-(2-pyridinylamino)-1-propenyl]-α-[[[4-(trifluoromethoxy)phenyl]sulfonyl]amino]-2-quinazolinepropanoic acid] | 59 | 4800
